According to PMC7170299, “Design, synthesis, molecular modelling and biological evaluation of novel 3-(2-naphthyl)-1-phenyl-1H-pyrazole derivatives as potent antioxidants and 15-Lipoxygenase inhibitors” (Journal of Enzyme Inhibition and Medicinal Chemistry, 2020):

What was measured:
[1] = DPPH radical scavenging assay; conditions: mean ± SEM of three experiments; 30 min, 517 nm
Method: The DPPH scavenging activity of all synthesized compounds was measured as previously described by Nahar et al.[48] with some modifications. Briefly, 100 µL of different concentrations of the tested compounds (12.5, 25, 50, 100, and 200 µg/mL) were pipetted into a 96-well plate. Then, 100 µL of 100-µM DPPH methanolic solution were added to each well and the plate was incubated protected from light at room temperature for 30 min. The absorbance of the solution was measured at λ517 nm.[49] Ascorbic acid was used as the positive control while DMSO was the negative control. The percentage of DPPH scavenging activity was calculated according to the following equation: % of DPPH scavenging=[(Acontrol–Asample)/Acontrol] ×100, where Acontrol is the absorbance of the control reaction (with all reagents except the test compound), and Asample is the absorbance of the test sample. […] All tests were performed in triplicates.

[2] = NO scavenging assay (sodium nitroprusside / Griess reagent); conditions: for NO IC50: mean ± SEM of three experiments, 90 min, 546 nm
Method: The NO scavenging activity of all synthesized compounds was measured as previously described by Ho et al.[50] Briefly, 50 µL of different concentrations of the tested compounds (12.5, 25, 50,100, and 200 µg/mL) were pipetted into a 96-well plate. Then, 50 µL of 10-mM sodium nitroprussides dissolved in phosphate-buffered saline PBS (pH 7.4) were added to each well and the plate was incubated for 90 min at room temperature. Next, an equal volume of Griess reagent (1% of sulphanilamide and 0.1% of naphthyl ethylene diamine in 2.5% […]) was added to each well to measure the nitrite content. The absorbance of the formed pink-coloured chromophore was measured at λ 546 nm. DMSO and ascorbic acid were used as the negative and positive control, respectively. All tests were performed in triplicate. The percentage of NO scavenging activity was calculated according to the following equation: % of NO scavenging=[(Acontrol−Asample)/Acontrol]×100 where Acontrol is the absorbance of the control reaction (with all reagents except the test compound), and Asample is the absorbance of the test sample.

[3] = Superoxide scavenging assay (pyrogallol autoxidation); conditions: mean ± SEM of three experiments; pyrogallol autoxidation, 325 nm
Method: The improved pyrogallol autoxidation method was used to determine O2^−. RSA of all synthesized compounds as previously described. Briefly, 50 µL of test compounds (12.5, 25, 50,100, and 200 µg/mL) was added to 2900 µl of […] Tris HCl buffer (0.05 M, pH 7.4) containing 1-mM Na2EDTA. Next, 50 µL of 60-mM pyrogallol in1mM HCl had been thoroughly mixed with the mixture. The absorbance of the reaction mixture was measured at A325 nm every 30 s for 5 min. O2^− RSA was expressed by the oxidation degree of a test group in comparison to that of the control. The absorbance at 325 nm was measured against the Tris-HCl buffer every 30 s for 5 min. The percentage of scavenging effect was calculated using the following equation: O2^− radical scavenging %=[(ΔA325, control/T)−(ΔA325nm, sample/T)/ΔA325nm, control/T]×100 where ΔA325 nm, control is the increase in A325 nm of the reaction mixture without the sample and ΔA325 nm, sample is that for the mixture with the sample; T=5 min. The experiments were performed in triplicate.

Soybean 15-LOX enzyme = target: T1, Soybean 15-LOX enzyme (Glycine max, UniProt P08170); assay: In vitro lipoxygenase inhibition (Cayman lipoxygenase inhibitor screening assay kit); format: biochemical; conditions: mean ± SEM of three experiments; substrate arachidonic acid
T1 construct: purchased Cayman Chemical 760700
T1 sequence (P08170 1-839): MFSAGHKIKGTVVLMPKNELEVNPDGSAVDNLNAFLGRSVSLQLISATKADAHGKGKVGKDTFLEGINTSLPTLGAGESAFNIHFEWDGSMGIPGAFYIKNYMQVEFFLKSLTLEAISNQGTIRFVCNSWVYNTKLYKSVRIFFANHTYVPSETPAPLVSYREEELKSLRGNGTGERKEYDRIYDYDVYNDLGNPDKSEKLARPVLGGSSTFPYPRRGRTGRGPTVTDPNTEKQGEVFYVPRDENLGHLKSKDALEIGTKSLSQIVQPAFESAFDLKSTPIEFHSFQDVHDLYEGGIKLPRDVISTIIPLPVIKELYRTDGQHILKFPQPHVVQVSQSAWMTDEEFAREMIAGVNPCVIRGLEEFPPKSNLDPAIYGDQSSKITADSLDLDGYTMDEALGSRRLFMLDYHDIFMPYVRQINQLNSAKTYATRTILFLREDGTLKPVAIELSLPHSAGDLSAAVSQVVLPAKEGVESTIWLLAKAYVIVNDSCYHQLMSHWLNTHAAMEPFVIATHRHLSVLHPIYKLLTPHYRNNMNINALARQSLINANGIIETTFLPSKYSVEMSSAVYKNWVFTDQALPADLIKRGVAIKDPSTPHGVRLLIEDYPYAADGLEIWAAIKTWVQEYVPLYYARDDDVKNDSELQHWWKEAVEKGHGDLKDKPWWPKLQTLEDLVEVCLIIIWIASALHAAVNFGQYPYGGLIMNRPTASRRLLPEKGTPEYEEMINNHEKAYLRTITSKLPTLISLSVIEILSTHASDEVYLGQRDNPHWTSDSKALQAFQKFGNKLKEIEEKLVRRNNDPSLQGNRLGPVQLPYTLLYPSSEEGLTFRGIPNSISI
Method: The assay was performed using Cayman’s lipoxygenase inhibitor screening assay kit (Catalog No. 760700, Cayman Chemical, USA) according to the manufacturer’s instructions. Briefly, 90 µL of 15-LOX was pipetted into a 96-well plate. Next, 10 µL of test compound at concentrations (2.5, 5.0 and 10 µM) dissolved in DMSO were added to each well. The reaction was initiated by adding 10 µL substrate (AA) and the plate was placed on a shaker for at least 5 minutes. Finally, 100 µL of chromogen (prepared according to manufacturer’s instructions) was added to each well to stop enzyme catalysis and develop the reaction. 100 µL of Assay buffer (0.1 M Tris-HCl, pH7.4) was used in blank wells. […] The absorbance of the solution was measured at λ 490–500 nm. The percentage inhibition was calculated according to the following equation: % inhibition =[(IA−Ainhibitor sample)/IA]×100 where (IA) is the 100% initial activity and (Ainhibitor sample) is the absorbance of the test sample. Dose–response curve was plotted between % inhibition and the drug concentration. The non-linear dose–response curve was used for calculating drug concentration showing 50% enzyme inhibition.

Row | Compound | DPPH IC50 [1] [µg/mL] | NO IC50 [2] [µg/mL] | Superoxide IC50 [3] [µg/mL] | IC50 (Soybean 15-LOX enzyme) [µM] | melting point [°C] | NO scavenging potency relative to ascorbic acid ([2]; folds that of ascorbic acid) [folds]
1 | COc1ccc(C(=O)/C=C/c2cn(-c3ccccc3)nc2-c2ccc3ccccc3c2)cc1 [Compound 2b, 1-(4-Methoxyphenyl)-3-(3-naphthalen-2-yl-1-phenyl-1H-pyrazole-4-yl)-propenone] | 182.17 ± 0.99 | 78.25 ± 1.25 | >200 | 3.13 ± 0.09 | 187 to 188 | –
2 | Cc1ccc(C(=O)/C=C/c2cn(-c3ccccc3)nc2-c2ccc3ccccc3c2)cc1 [Compound 2c, 3-(3-Naphthalen-2-yl-1-phenyl-1H-pyrazol-4-yl)-1-p-tolyl propenone] | 192.70 ± 1.63 | >200 | >200 | 2.8 ± 0.06 | 146 to 147 | –
3 | O=C(/C=C/c1cn(-c2ccccc2)nc1-c1ccc2ccccc2c1)c1ccc(Cl)c(Cl)c1 [Compound 2e, 1-(3,4-Dichlorophenyl)-3-(3-naphthalen-2-yl-1-phenyl-1H-pyrazol-4-yl)propenone] | 118.99 ± 1.78 | 11.04 ± 0.72 | >200 | 4.63 ± 0.09 | 168 to 169 | 3.4
4 | COc1ccc(C2=NNC(c3cn(-c4ccccc4)nc3-c3ccc4ccccc4c3)C2)cc1 (stereo not shown) [Compound 3b, 5-(4-Methoxyphenyl)-3′-naphthalen-2-yl-1′-phenyl-3,4-dihydro-2H,1’H-[3,4′] bipyrazole] | 11.70 ± 0.29 | 147.95 ± 1.32 | 118.65 ± 1.03 | 4.6 ± 0.06 | 177 to 178 | –
5 | Cc1ccc(C2=NNC(c3cn(-c4ccccc4)nc3-c3ccc4ccccc4c3)C2)cc1 (stereo not shown) [Compound 3c, 3’-Naphthalen-2-yl-1’-phenyl-5-p-tolyl-3,4-dihydro-2H, 1’H -[3,4’]bipyrazole] | 12.06 ± 1.17 | >200 | >200 | 3.77 ± 0.07 | 187 to 188 | –
6 | Clc1ccc(C2=NNC(c3cn(-c4ccccc4)nc3-c3ccc4ccccc4c3)C2)cc1Cl (stereo not shown) [Compound 3e, 5-(3,4-Dichlorophenyl)-3′-naphthalen-2-yl-1′-phenyl-3,4-dihydro-2H,1’H-[3,4′]-bipyrazole] | 9.63 ± 0.55 | 175.72 ± 1.41 | 129.12 ± 0.82 | 2.53 ± 0.07 | 195 to 196 | –
7 | c1ccc(C2=NN(c3ccccc3)C(c3cn(-c4ccccc4)nc3-c3ccc4ccccc4c3)C2)cc1 (stereo not shown) [Compound 4a, 3′-Naphthalen-2-yl-2,5,1′-triphenyl-3,4-dihydro-2H,1’H-[3,4′]bipyrazole] | 34.39 ± 1.03 | >200 | 176.14 ± 1.63 | 2.53 ± 0.09 | 187 to 188 | –
8 | COc1ccc(C2=NN(c3ccccc3)C(c3cn(-c4ccccc4)nc3-c3ccc4ccccc4c3)C2)cc1 (stereo not shown) [Compound 4b, 5-(4-Methoxyphenyl)-3′-naphthalen-2-yl-2,1′-diphenyl-3,4-dihydro-2H,1’H-[3,4′] bipyrazole] | 21.28 ± 1.14 | >200 | 65.63 ± 1.46 | 4 ± 0.06 | 156 to 157 | –
9 | Cc1ccc(C2=NN(c3ccccc3)C(c3cn(-c4ccccc4)nc3-c3ccc4ccccc4c3)C2)cc1 (stereo not shown) [Compound 4c, 3′-Naphthalen-2-yl-2,1′-diphenyl-5-p-tolyl-3,4-dihydro-2H, 1’H -[3,4′]bipyrazole] | 24.42 ± 0.9 | 179.9 ± 1.31 | 145.7 ± 1.42 | 1.83 ± 0.07 | 198 to 199 | –
10 | c1ccc(C2=NOC(c3cn(-c4ccccc4)nc3-c3ccc4ccccc4c3)C2)cc1 (stereo not shown) [Compound 5a, 5-(3-Naphthalen-2-yl-1-phenyl-1H-pyrazol-4-yl)-3-phenyl-4,5-dihydro-isoxazole] | 97.17 ± 1.4 | 37.5 ± 1.36 | 192.37 ± 1.74 | 5.53 ± 0.07 | 190 to 191 | –
11 | Clc1ccc(C2=NOC(c3cn(-c4ccccc4)nc3-c3ccc4ccccc4c3)C2)cc1Cl (stereo not shown) [Compound 5e, 3-(3,4-Dichlorophenyl)-5-(3-naphthalen-2-yl-1-phenyl-1H-pyrazol-4-yl)-4,5-dihydro isoxazole] | 38.44 ± 1.28 | 96.56 ± 1.4 | 168.77 ± 1.42 | 3 ± 0.06 | 187 to 189 | –
12 | COc1ccc(C2=NN(C(N)=S)C(c3cn(-c4ccccc4)nc3-c3ccc4ccccc4c3)C2)cc1 (stereo not shown) [Compound 6b] | 12.02 ± 0.63 | 198.08 ± 1.28 | >200 | 1.9 ± 0.06 | 193 to 194 | –
